In patent US20120157401A1, “METHODS FOR TREATING NEUROFIBROMATOSIS” (PTC Therapeutics, Inc., priority 2009, published 2012) one finds EC50 data, which are given here for 60 molecules.

The structures appear in SMILES notation.

One test deals with hypoxia-inducible endogenous VEGF expression. In words: Hypoxia-inducible endogenous VEGF expression ELISA in HeLa cells, dose-response EC50 (Table 3). As to conditions: HeLa cells, hypoxic conditions (1% O2), 24-48 hours, VEGF in conditioned media; read-out: ELISA EC50. In kind it is cell-based, human. The essentials:
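HeLa cells kept 24-48 h under hypoxia (1% O2, 5% CO2, nitrogen balance) with or without compound, e.g. seven concentrations; secreted VEGF in conditioned medium quantified by ELISA against a standard curve. Parallel Cell Titer Glo viability under identical conditions excludes cytotoxicity.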
As to `O=C(Oc1ccc(F)cc1)N1CCc2c([nH]c3ccc(Cl)cc23)C1c1ccc(OCCCn2ccnc2)cc1` (stereo not drawn) [Compound 994], the EC50 was less than 0.008 µM.

`O=C(Oc1ccc(Cl)cc1)N1CCc2c([nH]c3ccc(Cl)cc23)C1c1ccc(OCCCCn2ccnc2)cc1` (stereo not drawn) [Compound 1001]: the 50% effective concentration (EC50) was in the range of 0.008 to 0.04 µM.

The test is the same for the next values; noted with them: Homo sapiens, HeLa, read-out: ELISA EC50 μM.
`O=C(Oc1ccc(Cl)cc1)N1CCc2c([nH]c3ccc(Cl)cc23)C1c1ccc(OCC(O)CN2CCSCC2)cc1` (stereo not drawn) [Compound 923]: the 50% effective concentration (EC50) was less than 0.008 µM.

On to `O=C(Oc1ccc(F)cc1)N1CCc2c([nH]c3ccc(Cl)cc23)C1c1ccc(OCC(O)CN2CCSCC2)cc1` (stereo not drawn) [Compound 925], for which the EC50 is less than 0.008 µM.

Consider `CN1CCCC(COc2ccc(C3c4[nH]c5ccc(Cl)cc5c4CCN3C(=O)Oc3ccc(F)cc3)cc2)C1` (stereo not drawn) [Compound 932], for which the 50% effective concentration (EC50) was less than 0.008 µM.

With `O=C(Oc1ccc(Cl)cc1)N1CCc2c([nH]c3ccc(Cl)cc23)C1c1ccc(OCCCN2CCSCC2)cc1` (stereo not drawn) [Compound 933], the EC50 is less than 0.008 µM.

In the case of `COCCN(C)CC(O)COc1ccc(C2c3[nH]c4ccc(Cl)cc4c3CCN2C(=O)Oc2ccc(F)cc2)cc1` (stereo not drawn) [Compound 936], the EC50 is less than 0.008 µM.

Turning to `CCN(CC)CC(O)COc1ccc(C2c3[nH]c4ccc(Cl)cc4c3CCN2C(=O)Oc2ccc(Cl)cc2)cc1` (stereo not drawn) [Compound 938], the EC50 was less than 0.008 µM.

Take `O=C(Oc1ccc(Cl)cc1)N1CCc2c([nH]c3ccc(Cl)cc23)C1c1ccc(OCCCN2CCN(CCO)CC2)cc1` (stereo not drawn) [Compound 942]: the EC50 fell in the range of 0.008 to 0.04 µM.

In the case of `CCN(CC)CCCOc1ccc(C2c3[nH]c4ccc(Cl)cc4c3CCN2C(=O)Oc2ccc(Cl)cc2)cc1` (stereo not drawn) [Compound 946], the half-maximal effective concentration (EC50) lay in the range of 0.008 to 0.04 µM.

As for `Cc1ccc(OC(=O)N2CCc3c([nH]c4ccc(Cl)cc34)C2c2ccc(OCC3CCCN(C)C3)cc2)cc1` (stereo not drawn) [Compound 951], the EC50 was in the range of 0.008 to 0.04 µM.

On to `CN1CCCC(COc2ccc(C3c4[nH]c5ccc(Cl)cc5c4CCN3C(=O)Oc3ccccc3)cc2)C1` (stereo not drawn) [Compound 952], for which the concentration giving a half-maximal response (EC50) lay in the range of 0.008 to 0.04 µM.

Turning to `CC(C)NCCCOc1ccc(C2c3[nH]c4ccc(Cl)cc4c3CCN2C(=O)Oc2ccc(Cl)cc2)cc1` (stereo not drawn) [Compound 953], the EC50 fell in the range of 0.008 to 0.04 µM.

On to `O=C(Oc1ccc(Cl)cc1)N1CCc2c([nH]c3ccc(Cl)cc23)C1c1ccc(OCC(O)CN2CCN(CCO)CC2)cc1` (stereo not drawn) [Compound 960], for which the concentration giving a half-maximal response (EC50) fell in the range of 0.008 to 0.04 µM.

Consider `CN1CCN(CCCOc2ccc(C3c4[nH]c5ccc(Cl)cc5c4CCN3C(=O)Oc3ccc(Cl)cc3)cc2)CC1` (stereo not drawn) [Compound 961], for which the EC50 lay in the range of 0.008 to 0.04 µM.

On to `CN1CCN(CC(O)COc2ccc(C3c4[nH]c5ccc(Cl)cc5c4CCN3C(=O)Oc3ccc(F)cc3)cc2)CC1` (stereo not drawn) [Compound 963], for which the concentration giving a half-maximal response (EC50) lay in the range of 0.008 to 0.04 µM.

With `COCCN(C)CC(O)COc1ccc(C2c3[nH]c4ccc(Cl)cc4c3CCN2C(=O)Oc2ccc(Cl)cc2)cc1` (stereo not drawn) [Compound 964], the EC50 was 0.008 to 0.04 µM.

For `CN1CCCC(COc2ccc(C3c4[nH]c5ccc(Cl)cc5c4CCN3C(=O)Oc3ccc(Cl)cc3)cc2)C1` (stereo not drawn) [Compound 966], the half-maximal effective concentration (EC50) lay in the range of 0.008 to 0.04 µM.

For the molecule `CN1CCN(CC(O)COc2ccc(C3c4[nH]c5ccc(Cl)cc5c4CCN3C(=O)Oc3ccc(Cl)cc3)cc2)CC1` (stereo not drawn) [Compound 970], the 50% effective concentration (EC50) was 0.008 to 0.04 µM.

Consider `CN1CCCC(COc2ccc(C3c4[nH]c5ccc(Cl)cc5c4CCN3C(=O)Oc3ccccc3Cl)cc2)C1` (stereo not drawn) [Compound 976], for which the EC50 was in the range of 0.04 to 0.2 µM.

As to `CC(C)NCC(O)COc1ccc(C2c3[nH]c4ccc(Cl)cc4c3CCN2C(=O)Oc2ccc(Cl)cc2)cc1` (stereo not drawn) [Compound 977], the EC50 was in the range of 0.04 to 0.2 µM.

Take `COc1ccc(OC(=O)N2CCc3c([nH]c4ccc(Cl)cc34)C2c2ccc(OCC3CCCN(C)C3)cc2)cc1` (stereo not drawn) [Compound 981]: the concentration giving a half-maximal response (EC50) was in the range of 0.04 to 0.2 µM.

With `CC(=O)N1CCN(CCCOc2ccc(C3c4[nH]c5ccc(Cl)cc5c4CCN3C(=O)Oc3ccc(F)cc3)cc2)CC1` (stereo not drawn) [Compound 988], the EC50 was less than 0.008 µM.

For the molecule `O=C(Oc1ccc(F)cc1)N1CCc2c([nH]c3ccc(Cl)cc23)C1c1ccc(OCCCN2CCOCC2)cc1` (stereo not drawn) [Compound 989], the EC50 was less than 0.008 µM.

On to `COCCN(CCCOc1ccc(C2c3[nH]c4ccc(Cl)cc4c3CCN2C(=O)Oc2ccc(F)cc2)cc1)CCOC` (stereo not drawn) [Compound 990], for which the EC50 was less than 0.008 µM.

Turning to `O=C(Oc1ccc(F)cc1)N1CCc2c([nH]c3ccc(Cl)cc23)C1c1ccc(OCCCN2CCSCC2)cc1` (stereo not drawn) [Compound 991], the EC50 fell in the range of 0.04 to 0.2 µM.

In the case of `COCCN(C)CCCOc1ccc(C2c3[nH]c4ccc(Cl)cc4c3CCN2C(=O)Oc2ccc(F)cc2)cc1` (stereo not drawn) [Compound 992], the EC50 is 0.04 to 0.2 µM.

Turning to `CN1CCN(CCCOc2ccc(C3c4[nH]c5ccc(Cl)cc5c4CCN3C(=O)Oc3ccc(F)cc3)cc2)CC1` (stereo not drawn) [Compound 993], the half-maximal effective concentration (EC50) is less than 0.008 µM.

Turning to `COc1ccc(OC(=O)N2CCc3c([nH]c4ccc(Cl)cc34)C2c2ccc(OCCC3CCCN3C)cc2)cc1` (stereo not drawn) [Compound 1005], the EC50 lay within 0.2 to 1 µM.

Take `CN1CCCC1CCOc1ccc(C2c3[nH]c4ccc(Cl)cc4c3CCN2C(=O)Oc2ccc(F)cc2)cc1` (stereo not drawn) [Compound 1008]: the 50% effective concentration (EC50) lay in the range of 0.04 to 0.2 µM.

With `COCCN1CCN(C(=O)COc2ccc(C3c4[nH]c5ccc(Cl)cc5c4CCN3C(=O)Oc3ccc(F)cc3)cc2)CC1` (stereo not drawn) [Compound 1021], the EC50 lay within 0.04 to 0.2 µM.

For the molecule `O=C(COc1ccc(C2c3[nH]c4ccc(Cl)cc4c3CCN2C(=O)Oc2ccc(F)cc2)cc1)NCCN1CCOCC1` (stereo not drawn) [Compound 1022], the EC50 was 0.04 to 0.2 µM.

Consider `CCN1CCN(C(=O)COc2ccc(C3c4[nH]c5ccc(Cl)cc5c4CCN3C(=O)Oc3ccc(F)cc3)cc2)CC1` (stereo not drawn) [Compound 1024], for which the EC50 was in the range of 0.04 to 0.2 µM.

`COCCN1CCN(C(=O)COc2ccc(C3c4[nH]c5ccc(Cl)cc5c4CCN3C(=O)Oc3ccc(OC)cc3)cc2)CC1` (stereo not drawn) [Compound 1025]: the 50% effective concentration (EC50) was in the range of 0.04 to 0.2 µM.

Take `COc1ccc(OC(=O)N2CCc3c([nH]c4ccc(Cl)cc34)C2c2ccc(OCC(=O)NCCN3CCOCC3)cc2)cc1` (stereo not drawn) [Compound 1026]: the concentration for a half-maximal effect (EC50) lay within 0.008 to 0.04 µM.

`CCN1CCN(C(=O)COc2ccc(C3c4[nH]c5ccc(Cl)cc5c4CCN3C(=O)Oc3ccc(OC)cc3)cc2)CC1` (stereo not drawn) [Compound 1028]: the concentration giving a half-maximal response (EC50) lay within 0.04 to 0.2 µM.

As for `COc1ccc(OC(=O)N2CCc3c([nH]c4ccc(Cl)cc34)C2c2ccc(OCC(=O)N3CCN(CCCN(C)C)CC3)cc2)cc1` (stereo not drawn) [Compound 1029], the half-maximal effective concentration (EC50) is greater than 1 µM.

For `COc1ccc(OC(=O)N2CCc3c([nH]c4ccc(Cl)cc34)C2c2ccc(OCCCN3CCOCC3)cc2)cc1` (stereo not drawn) [Compound 1030], the EC50 lay within 0.008 to 0.04 µM.

The same test, now with this note: Homo sapiens; HeLa cells, hypoxic conditions (1% O2), 24-48 hours, VEGF in conditioned media; read-out: ELISA EC50.
With `O=C(Oc1ccc(Cl)cc1)N1CCc2c([nH]c3ccc(Cl)cc23)C1c1ccc(OCCCCl)cc1` (stereo not drawn) [Compound 921], the EC50 is less than 0.008 µM.

As for `O=C(Oc1ccc(F)cc1)N1CCc2c([nH]c3ccc(Cl)cc23)C1c1ccc(OCC(O)Cn2ccnc2)cc1` (stereo not drawn) [Compound 922], the concentration for a half-maximal effect (EC50) was less than 0.008 µM.

Regarding `O=C(Oc1ccccc1Cl)N1CCc2c([nH]c3ccc(Cl)cc23)C1c1ccc(OCCCn2cncn2)cc1` (stereo not drawn) [Compound 926], the EC50 is less than 0.008 µM.

For the molecule `O=C(Oc1ccccc1Cl)N1CCc2c([nH]c3ccc(Cl)cc23)C1c1ccc(OCCCn2ccnc2)cc1` (stereo not drawn) [Compound 934], the EC50 was less than 0.008 µM.

Regarding `O=C(Oc1ccc(F)cc1)N1CCc2c([nH]c3ccc(Cl)cc23)C1c1ccc(OCC(O)Cn2ccnn2)cc1` (stereo not drawn) [Compound 941], the EC50 was less than 0.008 µM.

For `COc1ccc(OC(=O)N2CCc3c([nH]c4ccc(Cl)cc34)C2c2ccc(OCCCCl)cc2)cc1` (stereo not drawn) [Compound 944], the 50% effective concentration (EC50) was 0.008 to 0.04 µM.

`CCS(=O)(=O)Nc1ccc(C2c3[nH]c4ccc(Cl)cc4c3CCN2C(=O)Oc2ccc(Cl)cc2)cc1` (stereo not drawn) [Compound 958]: the EC50 was in the range of 0.008 to 0.04 µM.

Turning to `O=C(Oc1ccc(F)cc1)N1CCc2c([nH]c3ccc(Cl)cc23)C1c1ccc(OCC2CO2)cc1` (stereo not drawn) [Compound 967], the half-maximal effective concentration (EC50) fell in the range of 0.008 to 0.04 µM.

In the case of `O=C(Oc1ccc(Cl)cc1)N1CCc2c([nH]c3ccc(Cl)cc23)C1c1ccc(OCC(O)Cn2ccnn2)cc1` (stereo not drawn) [Compound 973], the EC50 is 0.008 to 0.04 µM.

With `CS(=O)(=O)Nc1ccc(C2c3[nH]c4ccc(Cl)cc4c3CCN2C(=O)Oc2ccc(Cl)cc2)cc1` (stereo not drawn) [Compound 974], the EC50 is 0.04 to 0.2 µM.

For `O=C(Oc1ccc(Cl)cc1)N1CCc2c([nH]c3ccc(Cl)cc23)C1c1ccc(N2CCCC2)cc1` (stereo not drawn) [Compound 984], the EC50 was 0.2 to 1 µM.

With `O=C(Oc1ccc(F)cc1)N1CCc2c([nH]c3ccc(Cl)cc23)C1c1ccc(OCCCn2ccnn2)cc1` (stereo not drawn) [Compound 995], the EC50 was less than 0.008 µM.

In the case of `O=C(Oc1ccc(Cl)cc1)N1CCc2c([nH]c3ccc(Cl)cc23)C1c1ccc(OCC(O)Cn2cncn2)cc1` (stereo not drawn) [Compound 996], the concentration giving a half-maximal response (EC50) was less than 0.008 µM.

As to `C=CCOc1ccc(C2c3[nH]c4ccc(Cl)cc4c3CCN2C(=O)Oc2ccc(Cl)cc2)cc1` (stereo not drawn) [Compound 999], the half-maximal effective concentration (EC50) is less than 0.008 µM.

With `O=C(Oc1ccc(Cl)cc1)N1CCc2c([nH]c3ccc(Cl)cc23)C1c1ccc(OCCCn2nccn2)cc1` (stereo not drawn) [Compound 1016], the EC50 is greater than 1 µM.

Consider `O=C(Oc1ccc(F)cc1)N1CCc2c([nH]c3ccc(Cl)cc23)C1c1ccc(OCCCn2nccn2)cc1` (stereo not drawn) [Compound 1017], for which the EC50 was less than 0.008 µM.

As for `COc1ccc(OC(=O)N2CCc3c([nH]c4ccc(Cl)cc34)C2c2ccc(OCC(=O)N3CCOCC3)cc2)cc1` (stereo not drawn) [Compound 1027], the EC50 was 0.04 to 0.2 µM.

As for `COc1ccc(OC(=O)N2CCc3c([nH]c4ccc(Cl)cc34)C2c2ccc(OCCCn3ccnn3)cc2)cc1` (stereo not drawn) [Compound 1031], the concentration for a half-maximal effect (EC50) is less than 0.008 µM.

With `O=C(Oc1ccccc1)N1CCc2c([nH]c3ccc(Cl)cc23)C1c1ccc(OCC2OCCO2)cc1` (stereo not drawn) [Compound 1050], the half-maximal effective concentration (EC50) was less than 0.008 µM.

On to `O=C(Oc1ccc(F)cc1)N1CCc2c([nH]c3ccc(Cl)cc23)C1c1ccc(OCC2OCCO2)cc1` (stereo not drawn) [Compound 1051], for which the concentration for a half-maximal effect (EC50) was less than 0.008 µM.

Consider `O=C(Oc1ccccc1Cl)N1CCc2c([nH]c3ccc(Cl)cc23)C1c1ccc(OCC2OCCO2)cc1` (stereo not drawn) [Compound 1052], for which the EC50 lay in the range of 0.008 to 0.04 µM.

`O=C(Oc1ccc(Cl)cc1)N1CCc2c([nH]c3ccc(Cl)cc23)C1c1ccc(OCC2OCCO2)cc1` (stereo not drawn) [Compound 1053]: the EC50 was less than 0.008 µM.
